# Source: patent US20150307841A1, “Composition for Promoting Differentiation and Proliferation of Neural Stem Cell and Neural Precursor Cell” (priority 2014, published 2015)
# Experiments:
# [1] = test system: hippocampal neural precursor cells (NPCs); assay: Ki67 immunostaining of cultured embryonic neural precursor cells (proliferation); format: cell-based, rat
# Excerpt: (§1) Pregnant Sprague-Dawley rats purchased from Orient Animal Breeding Center (a branch of Charles River Laboratories, Gyeonggi-do, Korea) were sacrificed by exposing to CO2 inhalation. Hippocampal neural precursor cells (NPCs) were isolated from the brain of the E16 rat embryo according to the method of Shin M H et al. (Exp Mol Med, 2002) with slight modifications.
# (§2) Briefly, hippocampi were aseptically dissected from the embryonic forebrain, mechanically dissociated in Ca^2+/Mg^2+-free Hank's balanced salt solution (HBSS) and then plated at 7×10^5 cells/cm^2 on 60-mm dishes pre-coated with 15 μg/mL poly-L-ornithine and 1 μg/mL fibronectin. The neural precursor cells were cultured in serum-free N2 media supplemented with 10 ng/mL bFGF in 5% CO2 for 3 days and then detached using 0.05% trypsin-ethylenediaminetetraacetic acid (EDTA). The neural precursor cells were plated on 12-mm cover glasses (Bellco Co., Vineland, N.J., USA) and cultured one more day in N2 media supplemented with 10 ng/mL bFGF in 5% CO2 (primary culturing).
# Following the primary culturing in (1), immunohistochemical analysis was conducted using Ki67 antibodies in order to confirm the effect of soyasaponin I on proliferation of the embryonic neural precursor cells. […]
# [2] = test system: hippocampal neural precursor cells (NPCs); assay: NeuN, GFAP, TUJ1, MAP2 immunostaining of cultured embryonic neural precursor cells (differentiation, neurite outgrowth); format: cell-based, rat
# Excerpt: as §1, §2
# Following the primary culturing in (1), in order to confirm the differentiation of the neural precursor cells and the proliferation of the differentiated neurons, the neural precursor cells were cultured on 12-mm cover glasses (Bellco Co., Vineland, N.J., USA) for 4 days in bFGF-free N2 media with 2×10^4 cells/well. For double immunostaining of GFAP and NeuN, and TUJ1 and MAP2, the cells were cultured for only 2 days.
# The immunostaining was carried out as previously described (Donaldson J G (2001) Immunofluorescence staining Curr Protoc Cell Biol Chapter 4: Unit 4.3) with minor modifications.
# On the next day, after adding a vehicle (dimethyl sulfoxide) or soyasaponin I at different concentrations of 0.5, 1 or 2 μM to the media, the cells were fixed with 4% PFA in PBS at 4° C. for 4-15 minutes. The cells were permeabilized with 0.5% Triton X-100 for 5 minutes and blocked with 5% normal serum (a mixture of normal donkey, goat and horse sera) for 1 hour at room temperature.
# The cells were incubated with anti-GFAP (1:1,000, Chemicon), anti-NeuN (1:500, Chemicon), anti-MAP2 (1:2,500, Sigma) and anti-TUJ1 (1:2,000, Sigma) primary antibodies for 1 hour at room temperature. The secondary antibodies and scanning method used were the same as in (2).
# Cell counting was performed as reported by Park H J et al. (Phytother Res, 2008). The average length per neurite of the MAP2-positive cells with longer neurites more than double the cell body width was counted from 10-12 confocal laser microscopic fields that were randomly chosen per the cultured cover glass. Primary branches, which directly outgrow from the cell body, were counted when the length of the primary branches was 2 times or longer than the cell body width. All secondary and tertiary branches that come from the primary and secondary branches, respectively, were also counted. The numbers of the branches were also counted from 10-12 confocal laser microscopic fields that were randomly chosen per each cover glass on which the neuronal cells were grown and immunostained with MAP2 antibodies. Analysis of the neurite length and the numbers of the branches was performed with LSM Image Examiner ver. 2.80 (Carl Zeiss).
compound,measurement,setting,value
C[C@@H]1O[C@@H](O[C@H]2[C@H](O[C@H]3[C@H](O[C@H]4CC[C@@]5(C)[C@@H](CC[C@]6(C)[C@@H]5CC=C5[C@@H]7CC(C)(C)C[C@@H](O)[C@]7(C)CC[C@]56C)[C@@]4(C)CO)O[C@H](C(=O)O)[C@@H](O)[C@@H]3O)O[C@H](CO)[C@H](O)[C@@H]2O)[C@H](O)[C@H](O)[C@H]1O [soyasaponin I],Increase in the number of proliferating (Ki67) cells compared with the normal group (Vehicle),[1]; 2 μM soyasaponin I,2.5 fold
same,"Proliferation of the neural precursor cells (Ki67), concentration dependence","[1]; 0.5, 1, 2 μM",increased rapidly
same,Neurite length (MAP2) increase compared to the normal group,[2]; 1 μM soyasaponin I for 4 days,2.2 fold
same,Number of NeuN-expressing cells (differentiation into mature neurons),"[2]; 0.5 and 1 μM, concentration-dependent",increased
same,Astrocytes expressing glial fibrillary acidic protein (GFAP) in the cultures,[2]; hippocampal neural precursor cell cultures,hardly observed
same,Increase in TUJ1-expressing cells compared to the normal group,[2]; soyasaponin I 0.5 μM group,about 4 fold
same,Average neurite length,[2]; soyasaponin I 1 μM group,markedly increased
same,Numbers of both primary and secondary branches,[2]; soyasaponin I 1 μM group,markedly increased
